The values below come from patent publication US10183273B2, “Absorbent article comprising cyclodextrin complexes” (The Procter & Gamble Company, priority 2016, dated 2019).

The test is described as follows: Thiol Vapor Pressure Suppression (TVPS) index, zNose fast GC headspace. The note with it: percentage reduction in butanethiol headspace peak area; 5 μl compound, 37° C. 4 hours. Also on record: key: % reduction in butanethiol headspace peak area vs control. From the text:
Thiol Vapor Pressure Suppression (TVPS) index is a measure of the reduction in butanethiol concentration in the headspace by a compound, as measured using a fast GC instrument, the zNose 7100 (Electronic Sensor Technologies, Newbury Park, Calif.).
Thiol Vapor Pressure Suppression (TVPS) index is a measure of the reduction in butanethiol concentration in the headspace by a compound, as measured using a fast GC instrument, the zNose 7100 (Electronic Sensor Technologies, Newbury Park, Calif.) based on an Surface Acoustic Wave (SAW) Quartz microbalance detector, or equivalent.
Before any measurements the instrument is calibrated according to manufacturer's instructions under the same experimental settings. The instrument has a DB-5 column (also available from Electronic Sensor Technologies, Newbury Park, Calif.) 1 m in length, 0.25 μm phase thickness, and 0.25 mm in diameter.
For analysis, the zNose is programmed with the Sensor Temperature, Inlet Temperature, Valve Temperature, and Initial Column Temperature all set to 40° C. The oven is temperature gradient is programmed at a rate of 10 C°/s from 40° C. to a final temperature of 200° C.
TVPS of a compound is measured in the following way: 100 μl±1 μl of a 1% v/v butanethiol (99%, purity, available from Sigma-Aldrich, St. Louis, Mo.) solution in ethanol (200 proof) is added into a 1 ml vial (8×40 mm). These vials are borosilcate glass straight walled vial. In another 1 ml vial (8×40 mm), 5 μl±0.2 μl of the compound is added. Both open vials are then placed inside a 20 mL headspace vial (22×75 mm), and the vial is immediately sealed using a screw thread closure with PTFE/Silicone septa. The vial is heated to 37° C. for 4 hours. After 4 hours, the vial is removed from the oven and let to equilibrate at 25° C.±2° C. for 15 minutes. The headspace inside the vial is sampled using the zNose is sampled for 10 s and analyzed following the experimental protocol outlined above. Samples with butanethiol alone, and the volatile active alone, are run using the same protocol to identify the peaks for both materials. An acceptable retention index for butanethiol is 720±30. If the peaks butanethiol peak and the volatile material peak co-elute, one skilled in the art can modify the protocol settings to separate those peaks to achieve a minimum resolution of 1.5. For example one can change the column temperature ramp rate. In between samples, the instrument needs to be cleaned to remove any trace materials. To clean the instrument, the instrument is run without samples as needed until no peaks greater than 100 counts are observed.
The amount of butanethiol in the headspace is measured from the area of the peak on the chromatograph for butanethiol (ABtSH,Rx). To calculate the percentage of butanethiol reduction in the headspace, a control with the butanethiol solution without the volatile material is run in the same manner and the area is measured as well (ABtSH,C). TVPS is then measured as the percentage reduction in butanethiol area calculated using the following formula: […]

`CC(C)=CCCC(C)CCCC(C)C=O` (stereo not drawn) [adoxal] had a TVPS of 24.4.
With `CC1=CC(C)C(C=O)CC1` (stereo not drawn) [ligustral], the TVPS amounted to 42.5.
Turning to `CCCCCCC(C=O)=Cc1ccccc1` [Hexylcinnamic aldehyde], the TVPS was 8.0.
As to `Cc1ccc(C=O)s1` [5-methyl-2-thiophene-carboxaldehyde], the TVPS is listed as 67.4.
Take `CC(C)=CCCC(C)C=O` (stereo not drawn) [melonal]: the TVPS is reported as 20.4.
On to `CCC/C=C/C=O` [trans-2-hexenal], for which the TVPS is given as 27.1.
The figure for `CC(C)c1cccc(C(C)CC=O)c1` (stereo not drawn) [Florhydral] is 53.3.
The molecule `C=CC(C)CCC=C(C)CCC=O` (stereo not drawn) [Floral Super] came in with a TVPS of 52.4.
`CC(C)=CCC/C(C)=C\C=O` [neral] displayed a TVPS of 17.1.
